Assay results: the SangsterLogP compilation

Row | Structure (SMILES) | logP
1 | Cc1ccccc1NCc1cnc2nc(N)nc(N)c2c1C | 1.98
2 | Cc1cccc(Cl)c1NCc1cnc2nc(N)nc(N)c2c1C | 2.05
3 | Cc1c(CNc2c(Cl)cccc2Cl)cnc2nc(N)nc(N)c12 | 2
4 | Cc1c(Cl)cccc1NCc1cnc2nc(N)nc(N)c2c1C | 2.04
5 | CCOc1ccccc1NCc1cnc2nc(N)nc(N)c2c1C | 2.07
6 | Cc1ccc(C)c(NCc2cnc3nc(N)nc(N)c3c2C)c1 | 2.29
7 | CC(=O)c1cccc(NCc2cnc3nc(N)nc(N)c3c2C)c1 | 1.46
8 | Cc1cc(C)cc(NCc2cnc3nc(N)nc(N)c3c2C)c1 | 2.11

Second part, the molecule after the results:

Row | logP | Structure (SMILES)
9 | 2.02 | Cc1c(CNc2ccccc2)cnc2nc(N)nc(N)c12
10 | 1.45 | CC(=O)c1ccc(NCc2cnc3nc(N)nc(N)c3c2C)cc1
11 | 2.06 | Cc1c(CNc2ccc(Cl)c(Cl)c2)cnc2nc(N)nc(N)c12
12 | 2.03 | Cc1c(CNc2ccc(Cl)cc2)cnc2nc(N)nc(N)c12
13 | 2.1 | Cc1c(CNc2cccc(Cl)c2Cl)cnc2nc(N)nc(N)c12
14 | 2.03 | Cc1ccc(NCc2cnc3nc(N)nc(N)c3c2C)cc1Cl
15 | 2.03 | Cc1cc(NCc2cnc3nc(N)nc(N)c3c2C)ccc1Cl
